# Counter-ions that a name gives are not always drawn.
# Columns and labels:
# [1] = system: Staphylococcus aureus A.T.C.C. 6538P; test: Microbiological assay, standard disc plate assay; format: cell-based; settings: against the standard antibiotic base (1000 mcg/mg)
# Text: 6538P as the test organism.
# [2] = Stability to boiling in buffer; format: physicochemical
# Text: Further, the antibiotic is stable to boiling for at least thirty (30) minutes in MacIlvaines buffer from pH 2 - 8 and in sodium hydroxide-boric acid buffer from pH 8 - 10.
# [3] = system: Staphylococcus aureus 209P; test: In vitro antibacterial activity, minimum inhibitory concentration; format: cell-based; settings: Tryptose phosphate broth at pH 7.2
# Text: (§1) In vitro Antibacterial Activity
# (§2) Minimum Inhibitory Concentration
# (§3) Test Medium: Tryptose phosphate broth at pH 7.2.
# Proteus mirabilis 8019 = test: as above; format: cell-based; settings: Tryptose phosphate broth at pH 7.2
# Text: as §1, §2, §3
# [4] = system: Salmonella paratyphi 13311; test: as above; format: cell-based; settings: Tryptose phosphate broth at pH 7.2
# Text: as §1, §2, §3
# Escherichia coli 11775 = test: as above; format: cell-based; settings: Tryptose phosphate broth at pH 7.2
# Text: as §1, §2, §3
# [5] = system: Pseudomonas aeruginosa 130 - GR; test: as above; format: cell-based; settings: Tryptose phosphate broth at pH 7.2
# Text: as §1, §2, §3
# Staphylococcus aureus 45 = test: as above; format: cell-based; settings: Tryptose phosphate broth at pH 7.2
# Text: as §1, §2, §3
# [6] = system: Klebsiella pneumoniae Ad 17 - kR; test: as above; format: cell-based; settings: Tryptose phosphate broth at pH 7.2
# Text: as §1, §2, §3
# Escherichia coli 578 = test: as above; format: cell-based; settings: Tryptose phosphate broth at pH 7.2
# Text: as §1, §2, §3
# [7] = system: Pseudomonas aeruginosa 236 - GR; test: as above; format: cell-based; settings: Tryptose phosphate broth at pH 7.2
# Text: as §1, §2, §3
# Streptococcus pyogenes C = test: as above; format: cell-based; settings: Tryptose phosphate broth at pH 7.2
# Text: as §1, §2, §3
# mice (CF-1) = test: Acute toxicity in mice; format: in vivo; settings: sulfate salt
# Description: ^b The acute toxicity of Antibiotic G-52 in the form of the sulfate
# salt is determined in the standard manner by administration of the
# antibiotic to mice (CF-1) intravenously, subcutaneously and
# intraperitoneally. The results are analyzed by standard probit procedures
# to determine the LD50 values with 95% confidence limits.
# Escherichia coli = test: In vivo protective activity in mice; parameters: species or system Mice (Carworth Farms CF-1); settings: S.C., single dose of antibiotic (sulfate) 1 hour after intraperitoneal infection, survivors at 48 hours
# Description: (§4) In vivo Activity of Antibiotic G-52 in Mice
# (§5) ^a Mice (Carworth Farms CF-1 weighing about 18 - 20 grams) are treate
# (§6) with a single dose of antibiotic (sulfate) one (1) hour after an
# (§7) intraperitoneal infection with a lethal (10^7 organisms) quantity of
# (§8) the infectious organism. The number of survivors are determined 48 hours
# (§9) after infection and the data analyzed by standard probit procedures to
# (§10) determine the PD50 values with 95% confidence limits.
# Pseudomonas aeruginosa = test: In vivo protective activity in mice; parameters: species or system Mice (Carworth Farms CF-1); settings: S.C., single dose of antibiotic (sulfate) 1 hour after intraperitoneal infection, survivors at 48 hours
# Description: as §4, §5, §6, §7, §8, §9, §10
# [8] = system: Staphylococcus aureus Gray; test: In vivo protective activity in mice; parameters: species or system Mice (Carworth Farms CF-1); settings: S.C., single dose of antibiotic (sulfate) 1 hour after intraperitoneal infection, survivors at 48 hours
# Description: as §4, §5, §6, §7, §8, §9, §10
smiles,measurement,setting,value
CNCC1=CCC(N)C(OC2C(N)CC(N)C(OC3OCC(C)(O)C(NC)C3O)C2O)O1 (centres unmarked) [Antibiotic G-52 sulfate],potency (microbiological assay),[1],about 675 mcg/mg
same,potency (microbiological assay),[1]; listed as Antibiotic G-52 Sulfate,660 mcg/mg
CNCC1=CC[C@@H](N)[C@@H](O[C@H]2[C@H](O)[C@@H](O[C@H]3OC[C@](C)(O)[C@H](NC)[C@H]3O)[C@H](N)C[C@@H]2N)O1 [Antibiotic G-52],stable to boiling,"[2]; MacIlvaines buffer, pH 2 - 8",≥ 30 min
same,stable to boiling,"[2]; sodium hydroxide-boric acid buffer, pH 8 - 10",≥ 30 min
same,Minimum Inhibitory Concentration (MIC),[3],0.3 µg/mL
same,Minimum Inhibitory Concentration (MIC),Proteus mirabilis 8019,7.5 µg/mL
same,Minimum Inhibitory Concentration (MIC),[4],17.5 µg/mL
same,Minimum Inhibitory Concentration (MIC),Escherichia coli 11775,3.0 µg/mL
same,Minimum Inhibitory Concentration (MIC),[5],25 µg/mL
same,Minimum Inhibitory Concentration (MIC),Staphylococcus aureus 45,0.8 µg/mL
same,Minimum Inhibitory Concentration (MIC),[6],0.8 µg/mL
same,Minimum Inhibitory Concentration (MIC),Escherichia coli 578,7.5 µg/mL
same,Minimum Inhibitory Concentration (MIC),[7],25 µg/mL
same,Minimum Inhibitory Concentration (MIC),Streptococcus pyogenes C,25 µg/mL
same,solubility in polar organic solvents,"Solubility; lower alcohols, dimethylformamide, dimethylsulfoxide, pyridine",some degree of solubility in most polar organic solvents
same,solubility in water,Solubility; water,very soluble in water
same,LD50,mice (CF-1); I.P.,200 mg/kg
same,LD50,mice (CF-1); I.V.,50 mg/kg
same,LD50,mice (CF-1); S.C.,400 mg/kg
same,PD50,Escherichia coli,2.5 mg/kg
same,PD50,Pseudomonas aeruginosa,1.5 mg/kg
same,PD50,[8],2.5 mg/kg
same,potency (microbiological assay),[1]; listed as Antibiotic G-52 Base,about 1000 mcg/mg

# Source: patent publication US3956068A, “Antibiotic G-52 and method for the production thereof” (Schering Corporation, priority 1975, dated 1976)
